Results taken from PMC5624946, “Extrapyramidal side effects of antipsychotics are linked to their association kinetics at dopamine D2 receptors” (Nature Communications, 2017).
Where a name gives a salt, the structure may show the parent alone. Read-outs that look alike come from different tables or passages of the source.

How the values were obtained:
human D2L receptors [1] = target: T1, human D2L receptors (Homo sapiens, UniProt P14416); experiment: Competition kinetic binding with PPHT-red tracer (TR-FRET, Motulsky-Mahan); settings: for t 1/2: dissociation half-life from k off
T1 sequence (P14416 whole entry): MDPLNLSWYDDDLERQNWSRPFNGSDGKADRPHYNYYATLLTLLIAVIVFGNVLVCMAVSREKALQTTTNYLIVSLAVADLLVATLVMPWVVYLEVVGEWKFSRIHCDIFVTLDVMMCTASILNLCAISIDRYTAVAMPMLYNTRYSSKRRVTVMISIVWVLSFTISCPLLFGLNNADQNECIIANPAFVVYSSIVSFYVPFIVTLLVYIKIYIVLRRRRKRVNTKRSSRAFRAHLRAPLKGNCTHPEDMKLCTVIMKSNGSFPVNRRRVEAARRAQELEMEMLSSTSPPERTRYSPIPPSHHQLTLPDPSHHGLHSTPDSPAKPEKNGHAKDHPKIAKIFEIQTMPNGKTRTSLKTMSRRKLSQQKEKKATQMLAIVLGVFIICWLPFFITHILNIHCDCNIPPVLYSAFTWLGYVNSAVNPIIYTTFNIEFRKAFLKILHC

human D2L receptors [2] = target: T1, human D2L receptors; experiment: biochemical
human D2L receptors [3] = target: T1, human D2L receptors; experiment: Equilibrium competition binding with PPHT-red (TR-FRET)
human D2L receptors [4] = target: T1, human D2L receptors
D2R = D2R (Homo sapiens, UniProt P14416); experiment: biochemical
Sequence of D2R (P14416 whole entry): as above

[5] = cited from earlier work
[6] = clinical; cited from earlier work
[7] = 37 °C, 100 μM GppNHp, 12.5 nM PPHT-red tracer, CHO-D2L membranes, mean ± s.e.m., four experiments

Compound	t 1/2 (human D2L receptors [1]) [min]	Kd (human D2L receptors [2]) [nM]	Ki (human D2L receptors [3]) [nM]	also measured
CN1CC2c3ccccc3Oc3ccc(Cl)cc3C2C1 (centres unmarked) [Asenapine, asenapine maleate]	0.75	–	–	–
O=C(CCCN1CC=C(n2c(=O)[nH]c3ccccc32)CC1)c1ccc(F)cc1 [Droperidol, droperidol]	1.82	0.195	0.102	k off (human D2L receptors [1]; [7]): 0.00633 ± 0.00067 s⁻¹; k on (human D2L receptors [1]; [7]): 2.01 ± 0.38 × 10^9 M^−1 min^−1
OCCN1CCN(CCC=C2c3ccccc3Sc3ccc(C(F)(F)F)cc32)CC1 [Flupenthixol, flupenthixol dihydrochloride]	–	0.214	0.209	t 1/2 (human D2L receptors [4]): 9.63 min; k off (human D2L receptors [1]): 0.0012 ± 0.000167 s⁻¹; k on (human D2L receptors [1]): 3.50 ± 0.72 × 10^8 M^−1 min^−1
OCCN1CCN(CCCN2c3ccccc3Sc3ccc(C(F)(F)F)cc32)CC1 [Fluphenazine, fluphenazine dihydrochloride]	17.33	–	–	–
CN1CCN(C2=Nc3ccccc3Oc3ccc(Cl)cc32)CC1 [Loxapine, loxapine succinate]	0.32	–	–	–
CCc1c(C)[nH]c2c1C(=O)C(CN1CCOCC1)CC2 (centres unmarked) [Molindone, molindone hydrochloride]	0.41	20.4	26.9	k off (D2R): 0.0282 s⁻¹; k off (human D2L receptors [1]; [7]): 0.0282 ± 0.0075 s⁻¹; k on (human D2L receptors [1]; [7]): 8.69 ± 2.6 × 10^7 M^−1 min^−1
CNc1cc(OC)c(C(=O)NC2CCN(Cc3ccccc3)C2C)cc1Cl (centres unmarked) [Nemonapride, nemonapride]	38.50	–	–	–
Cc1nc2n(c(=O)c1CCN1CCC(c3noc4cc(F)ccc34)CC1)CCCC2O (centres unmarked) [Paliperidone, paliperidone]	1.58	2.51	2.88	k off (D2R): 0.0075 s⁻¹; k off (human D2L receptors [1]; [7]): 0.00733 ± 0.00067 s⁻¹; k on (human D2L receptors [1]; [7]): 1.80 ± 0.29 × 10^8 M^−1 min^−1
OCCN1CCN(CCCN2c3ccccc3Sc3ccc(Cl)cc32)CC1 [Perphenazine, perphenazine]	3.01	0.186	0.295	k off (human D2L receptors [1]; [7]): 0.00383 ± 0.00033 s⁻¹; k on (human D2L receptors [1]; [7]): 1.29 ± 0.17 × 10^9 M^−1 min^−1
OCCOCCN1CCN(C2=Nc3ccccc3Sc3ccccc32)CC1 [Quetiapine, quetiapine hemifumarate]	–	–	–	plasma half-life, in words [5]: short
CCN1CCC[C@H]1CNC(=O)c1c(O)c(Cl)cc(Cl)c1OC [Raclopride, raclopride]	1.31	–	–	–
O=C1NCCN1CCN1CCC(c2cn(-c3ccc(F)cc3)c3ccc(Cl)cc23)CC1 [Sertindole, sertindole]	1.17	–	–	–
O=C(CCCN1CCC2(CC1)C(=O)NCN2c1ccccc1)c1ccc(F)cc1 [Spiperone, spiperone]	18.24	–	–	–
CN1CCN(CCCN2c3ccccc3Sc3ccc(C(F)(F)F)cc32)CC1 [Trifluoperazine, trifluoperazine dihydrochloride]	3.15	0.204	0.331	k off (human D2L receptors [4]): 0.00367 ± 0.00017 s⁻¹; k on (human D2L receptors [4]): 1.10 ± 0.20 × 10^9 M^−1 min^−1
O=C1Cc2cc(CCN3CCN(c4nsc5ccccc45)CC3)c(Cl)cc2N1 [Ziprasidone, ziprasidone hydrochloride monohydrate]	0.65	–	–	–
CN(C)CCOC1=Cc2ccccc2Sc2ccc(Cl)cc21 [Zotepine, zotepine]	0.49	–	–	–
O=C1CCc2ccc(OCCCCN3CCN(c4cccc(Cl)c4Cl)CC3)cc2N1 [aripiprazole]	–	–	–	propensity to cause prolactin release, in words [6]: very little propensity to cause prolactin release
(+)-butaclamol [(+)Butaclamol]	–	–	–	t 1/2 (human D2L receptors [4]): 26.65 min
